Data taken from the supplement of paper PMC4862054.
Several values for one entry are separate records, joined by “and”; a condition that tells them apart may be missing. Equal entries are not always repeated.

Key:
Assay in all cases: normalised viability (% of control), CellTiter-Blue; higher = more viable cells (about 100 = DMSO control)
Details in all cases: incubation time: 72 h
[1] = tested on: SK-BR-3
Method in brief: (§1)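 Breast cancer cell lines were treated for 72 h in 384-well format and measured by CellTiter-Blue fluorescence at 560/590 nm. Results were normalised per plate to vehicle (100) and a positive kill control (0). The entry is normalised viability at a single listed concentration of the series.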

[2] = tested on: DU-4475
Method in brief: as §1

[3] = tested on: HCC1937
Method in brief: as §1

[4] = tested on: MDA-MB-436
Method in brief: as §1

[5] = tested on: HDQ-P1
Method in brief: as §1

[6] = tested on: CAL-120
Method in brief: as §1

[7] = tested on: MDA-MB-231
Method in brief: as §1

Row | SMILES | normalised viability ([1]; 10 nM) | normalised viability ([1]; 1000 nM) | normalised viability ([1]; 10000 nM) | normalised viability ([2]; 3 nM) | normalised viability ([2]; 30 nM) | normalised viability ([2]; 100 nM) | normalised viability ([3]; 10 nM) | normalised viability ([3]; 1000 nM) | normalised viability ([3]; 10000 nM) | normalised viability ([4]; 10 nM) | normalised viability ([4]; 1000 nM) | normalised viability ([4]; 10000 nM) | normalised viability ([5]; 30 nM) | normalised viability ([5]; 100 nM) | normalised viability ([6]; 10 nM) | normalised viability ([6]; 1000 nM) | normalised viability ([6]; 10000 nM) | normalised viability ([7]; 10 nM) | normalised viability ([7]; 1000 nM) | normalised viability ([7]; 10000 nM) | normalised viability ([5]; 3 nM) | normalised viability ([1]; 1 nM) | normalised viability ([1]; 100 nM) | normalised viability ([2]; 0.3 nM) | normalised viability ([2]; 10 nM) | normalised viability ([3]; 1 nM) | normalised viability ([3]; 100 nM) | normalised viability ([4]; 1 nM) | normalised viability ([4]; 100 nM) | normalised viability ([5]; 0.3 nM) | normalised viability ([5]; 10 nM) | normalised viability ([6]; 1 nM) | normalised viability ([6]; 100 nM) | normalised viability ([7]; 1 nM) | normalised viability ([7]; 100 nM)
1 | CO[C@H](C(=O)[C@@H](O)[C@@H](C)O)[C@@H]1Cc2cc3cc(O[C@H]4C[C@@H](O[C@@H]5C[C@@H](O)[C@H](O)[C@@H](C)O5)[C@H](O)[C@@H](C)O4)c(C)c(O)c3c(O)c2C(=O)[C@H]1O[C@H]1C[C@@H](O[C@@H]2C[C@@H](O)[C@@H](O[C@@H]3C[C@](C)(O)[C@H](O)[C@@H](C)O3)[C@@H](C)O2)[C@H](O)[C@@H](C)O1 [Plicamycin] | 111% and 88.8% | 6.61% and 5.62% | 4.44% and 5.25% | 85.1% and 89.9% | 88.7% and 83.8% | 1.46% and 0.7% | 85.8% and 78.5% | 22.1% and 19.5% | 29.1% and 20.6% | 95.2% and 75.5% | 25.8% and 19.9% | 21.7% and 13.9% | 104% and 80.5% | 68.5% and 44.6% | 89.5% and 75.6% | 13.4% and 10.2% | 11.9% and 9.12% | 82.1% and 88.4% | 9.81% and 8.56% | 8.03% and 7.03% |  |  |  |  |  |  |  |  |  |  |  |  |  |  | 
2 | C[C@]12C=CC(=O)C=C1CC[C@@H]1[C@@H]2C(=O)C[C@@]2(C)[C@H]1CC[C@]2(O)C(=O)CO [Prednisone] | 101% | 111% | 113% | 90.2% | 94.9% | 88.4% | 95.7% | 105% | 98.9% | 91.3% | 70.5% | 109% | 110% | 114% | 79.9% | 79.3% | 96.3% | 97% | 101% | 108% | 98.3% |  |  |  |  |  |  |  |  |  |  |  |  |  | 
3 | CO[C@H]1C[C@@H]2CC[C@@H](C)[C@@](O)(O2)C(=O)C(=O)N2CCCC[C@H]2C(=O)O[C@H]([C@H](C)C[C@@H]2CC[C@@H](O)[C@H](OC)C2)CC(=O)[C@H](C)/C=C(\C)[C@@H](O)[C@@H](OC)C(=O)[C@H](C)C[C@H](C)/C=C/C=C/C=C/1C [Sirolimus] |  | 43% |  | 61.4% |  |  |  | 59% |  |  | 87.2% |  |  |  |  | 47.3% |  |  | 87% |  | 66.3% | 84.8% | 48.4% | 99.1% | 65.8% | 58% | 46.3% | 93.3% | 84.5% | 88.9% | 71.3% | 79.6% | 53.4% | 74% | 62.8%
4 | CN1CCN(c2nc(C3=C(c4c[nH]c5ccccc45)C(=O)NC3=O)c3ccccc3n2)CC1 [Sotrastaurin] | 95.6% | 103% | 73.1% | 98.6% | 94% | 115% | 54.1% | 81.4% | 95.1% | 112% | 59.1% | 107% | 98.8% | 94.1% | 110% | 118% | 110% | 94.5% | 101% | 124% | 88.9% |  |  |  |  |  |  |  |  |  |  |  |  |  | 
5 | CC/C(=C(\c1ccccc1)c1ccc(OCCN(C)C)cc1)c1ccccc1 [Tamoxifen] | 101% | 107% | 80.9% | 99.9% | 95.7% | 110% | 83.4% | 83.1% | 98.6% | 101% | 94.7% | 40.1% | 100% | 110% | 110% | 100% | 82.1% | 93.1% | 94.6% | 115% | 109% |  |  |  |  |  |  |  |  |  |  |  |  |  | 
6 | COc1cc2c(N3CCN(C(=O)Nc4ccc(OC(C)C)cc4)CC3)ncnc2cc1OCCCN1CCCCC1 [Tandutinib] |  | 114% |  | 92.9% |  |  |  | 115% |  |  | 112% |  |  |  |  | 114% |  |  | 122% |  | 95.5% | 111% | 111% | 107% | 98.1% | 101% | 78.2% | 95% | 81.9% | 105% | 109% | 110% | 106% | 107% | 108%
7 | C[C@@H](C(=O)O)c1ccc(-c2ccccc2)c(F)c1 [Tarenflurbil] | 99.3% | 105% | 126% | 101% | 95.6% | 108% | 84.3% | 92.9% | 102% | 104% | 90.4% | 138% | 106% | 98.9% | 94% | 92.2% | 99.4% | 97.8% | 88.6% | 103% | 106% |  |  |  |  |  |  |  |  |  |  |  |  |  | 
8 | Cn1nnc2c(C(N)=O)ncn2c1=O [Temozolomide] | 95.1% | 99.8% | 113% | 108% | 95.3% | 113% | 88.3% | 105% | 116% | 102% | 91.3% | 101% | 88.5% | 27.3% | 101% | 104% | 100% | 101% | 88% | 91% | 95.6% |  |  |  |  |  |  |  |  |  |  |  |  |  | 
9 | CC[C@@H]1C(=O)N(C)c2cnc(Nc3ccc(C(=O)N[C@H]4CC[C@H](N5CCN(CC6CC6)CC5)CC4)cc3OC)nc2N1C(C)C [Volasertib] |  | 24.1% |  | 88.2% |  |  |  | 34.9% |  |  | 80.8% |  |  |  |  | 24.7% |  |  | 45.9% |  | 84% | 105% | 20.7% | 98.4% | 86.1% | 131% | 30.8% | 113% | 83.5% | 108% | 76.4% | 91.1% | 26.8% | 114% | 36.3%
